{"source": "patent US20260337212A1", "about": "“IP4-4,6 SUBSTITUTED DERIVATIVE COMPOUNDS FOR USE IN THE TREATMENT, INHIBITION OF PROGRESSION, AND PREVENTION OF ECTOPIC CALCIFICATION” (SANIFIT THERAPEUTICS, S.A., priority 2022, published 2026)", "test": "Rat vitamin D3 model: walking ability, forced incremental treadmill test", "assay_type": "in vivo, Sprague Dawley rat", "method": "FIG. 14 depicts the mean maximum walking distance (±SD) in Sham rats (no VitD3 treatment) and rats treated with vehicle, Compound 27 (5, 15, and 45 mg/kg). Statistical analysis: One-way ANOVA with Fisher's LSD test for post-hoc comparisons. The result of the ANOVA was p<0.0001. (#) indicates significant differences vs. sham, (*) indicates significant differences vs vehicle, (§) indicates significant differences vs Compound 27 5 mg/kg (only applies to other Compound 27 doses), (¥) indicates significant differences vs Compound 27 15 mg/kg (only applies to Compound 27 45 mg/kg), (‡) significant differences vs Compound 27 45 mg/kg, p<0.05.\nThe model evaluated the effects of Compound 27 on tissue calcification, blood perfusion, and walking ability in rats for a duration of 13 days. Tissue calcification was induced in groups 2-5 from D1 to D3. […] The impact of treatment on tissue calcification, blood perfusion, and walking ability was evaluated. […]\nMaximal walking time (MWT) and maximal walking distance (MWD) were assessed by forced incremental treadmill running tests using a two-lane touch screen treadmill device for rats (Cat. No. LE8709TS, Panlab, Harvard Biosciences, Inc., Holliston, MA, US) with a 15% inclination. […]\nFor group 2, the treadmill assessment started 15 min after dosing. […] MWD (in meters) and MWT (in minutes) were recorded for each animal.", "data": [{"substance": "4,6-O-bis(5-acetamidopentyl)-myo-inositol-1,2,3,5-tetrakis(phosphate) octasodium salt [Compound 27]", "values": [{"measurement": "Effect on maximum walking distance", "setting": "5, 15, 45 mg/kg s.c. daily, FIG. 14", "value": "dose-response effect from 5 mg/kg"}, {"measurement": "Improvement of walking ability", "setting": "15 and 45 mg/kg s.c. daily, as early as D5 after induction", "value": "improves the walking ability of rats administered with vitamin D as early as D5 after the induction of the PAD disease, in a dose-response manner"}]}]}
